Test results as given in patent US7659289B2, “Hydroxyethylene-based β-secretase inhibitors and use thereof” (CoMentis, Inc., priority 2004, dated 2010).

What was measured:
[1] = target: memapsin 2 (Homo sapiens, UniProt P56817); assay: Inhibition of memapsin 2 beta-secretase activity toward fluorogenic substrate FS-2; type: biochemical; conditions: pH 4, 37° C., 20 minutes pre-incubation, fluorogenic substrate FS-2, tight-binding model; read-out: M2 Ki
Description: Potency of compounds were determined by measurement of their inhibition of memapsin 2 activity toward a fluorescent substrate. […] Briefly, assays were performed at pH 4, 37° C., by pre-incubation of memapsin 2 enzyme with compound for 20 minutes. Activity measure was initiated by addition of a fluorogenic substrate FS-2 (Bachem Americas, Torrance, Calif.). Fluorescent signal increase over time was measured as a rate of hydrolysis of the peptide substrate.

[2] = target: Cathepsin D (Homo sapiens, UniProt P07339); assay: Inhibition of cathepsin D activity (MALDI-TOF, substrate peptide […]); type: biochemical; conditions: pH 4.1, 37 degrees C., read-out: Cath D Ki
Chain of Cathepsin D (P07339 65-412, species assumed): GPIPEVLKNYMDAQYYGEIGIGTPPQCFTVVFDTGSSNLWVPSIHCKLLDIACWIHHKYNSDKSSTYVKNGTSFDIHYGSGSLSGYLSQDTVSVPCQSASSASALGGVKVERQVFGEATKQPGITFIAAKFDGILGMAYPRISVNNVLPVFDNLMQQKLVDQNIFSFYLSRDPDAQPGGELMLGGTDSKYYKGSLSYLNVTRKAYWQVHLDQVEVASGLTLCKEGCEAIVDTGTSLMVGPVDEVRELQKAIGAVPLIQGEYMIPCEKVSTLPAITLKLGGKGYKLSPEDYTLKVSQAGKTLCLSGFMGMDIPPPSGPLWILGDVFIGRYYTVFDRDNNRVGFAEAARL
Description: After equilibration at 37 degrees C., the reactions were initiated by the addition of an aliquot of memapsin 2. Aliquots were removed at time intervals, and combined with an equal volume of MALDI-TOF matrix (α-hydroxycinnamic acid in acetone, 20 mg/ml) and immediately spotted in duplicate onto a stainless-steel MALDI sample plate. MALDI-TOF mass spectrometry was performed on a PE Biosystems Voyager DE instrument at the Molecular Biology Resource Center on campus. The instrument was operated at 25,000 accelerating volts in positive mode with a 150 ns delay. Ions with a mass-to-charge ratio (m/z) were detected in the range of 650-2000 atomic mass units. Data was analyzed by the Voyager Data Explorer module to obtain ion intensity data for mass species of substrates and corresponding products in a given mixture. Relative product formation was calculated as the ratio of signal intensity of the product to the sum of signal intensities of both product and the corresponding substrate. Relative product formed per unit time was obtained from non-linear regression analysis of the data representing the initial 15% formation of product using the model: 1−e^−kT,
where k is the relative hydrolytic rate constant and T is time in seconds. Initial rates were expressed relative to uninhibited controls and fit to a tight-binding model of competitive inhibition as above.

Chain of memapsin 2 (P56817 46-501): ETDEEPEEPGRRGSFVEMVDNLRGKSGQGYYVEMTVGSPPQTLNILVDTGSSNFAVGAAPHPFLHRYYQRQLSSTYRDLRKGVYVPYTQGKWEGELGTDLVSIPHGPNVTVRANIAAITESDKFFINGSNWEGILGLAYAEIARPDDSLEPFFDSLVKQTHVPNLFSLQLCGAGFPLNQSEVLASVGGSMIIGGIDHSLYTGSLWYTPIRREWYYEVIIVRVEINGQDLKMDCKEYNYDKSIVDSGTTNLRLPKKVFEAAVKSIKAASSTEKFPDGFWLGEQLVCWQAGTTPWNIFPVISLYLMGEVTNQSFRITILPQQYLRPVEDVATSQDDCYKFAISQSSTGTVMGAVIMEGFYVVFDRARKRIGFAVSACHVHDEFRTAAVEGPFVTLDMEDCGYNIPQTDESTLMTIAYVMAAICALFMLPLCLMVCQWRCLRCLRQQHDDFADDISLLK

**Q.** How did the Ki [1] turn out when `Cc1nc(COC(=O)N[C@@H](CC(=O)N(C)C)C(=O)N[C@@H](CC(C)C)[C@@H](O)C[C@@H](C)C(=O)N[C@H](C(=O)NCC(C)C)C(C)C)c(C)o1` [(2,5-dimethyloxazol-4-yl)methyl (5S,8S,9S,11R,14S)-9-hydroxy-8-isobutyl-14-isopropyl-2,11,18-trimethyl-3,6,12,15-tetraoxo-2,7,13,16-tetraazanonadecan-5-ylcarbamate] was run?
**A.** Its Ki is 100 to 600 nM.

**Q.** Which results are given for `Cc1nc(COC(=O)N[C@@H](CC(=O)NCc2ccncc2)C(=O)N[C@@H](CC(C)C)[C@@H](O)C[C@@H](C)C(=O)N[C@H](C(=O)NCC(C)C)C(C)C)c(C)o1` [(2,5-dimethyloxazol-4-yl)methyl (5S,8S,9S,11R,14S)-9-hydroxy-8-isobutyl-14-isopropyl-11,18-dimethyl-3,6,12,15-tetraoxo-1-(pyridin-4-yl)-2,7,13,16-tetraazanonadecan-5-ylcarbamate]?
**A.** Ki [1]: 100 to 600 nM; Ki [2]: < 100 nM

**Q.** Which results are given for `Cc1nc(COC(=O)N[C@@H](CC(N)=O)C(=O)N[C@@H](CC(C)C)[C@@H](O)C[C@@H](C)C(=O)N[C@H](C(=O)NCC(C)C)C(C)C)c(C)o1` [(2,5-dimethyloxazol-4-yl)methyl (S)-4-amino-1-((4S,5S,7R)-5-hydroxy-8-((S)-1-(isobutylamino)-3-methyl-1-oxobutan-2-ylamino)-2,7-dimethyl-8-oxooctan-4-ylamino)-1,4-dioxobutan-2-ylcarbamate]?
**A.** Ki [1]: 100 to 600 nM; Ki [2]: < 100 nM

**Q.** How did the Ki [1] turn out when `Cc1cc(C)n(CC(C)C(=O)N[C@@H](CC(N)=O)C(=O)N[C@@H](CC(C)C)[C@@H](O)C[C@@H](C)C(=O)N[C@H](C(=O)NCC(C)C)C(C)C)n1` (stereo partly drawn) [(2S)-2-(3-(3,5-dimethyl-1H-pyrazol-1-yl)-2-methylpropanamido)-N1-((4S,5S,7R)-5-hydroxy-8-((S)-1-(isobutylamino)-3-methyl-1-oxobutan-2-ylamino)-2,7-dimethyl-8-oxooctan-4-yl)succinamide] was run?
**A.** Its Ki is 100 to 600 nM.

**Q.** `Cc1cc(C)n(CCC(=O)N[C@@H](CC(N)=O)C(=O)N[C@@H](CC(C)C)[C@@H](O)C[C@@H](C)C(=O)NC(CO)C(=O)NCC(C)C)n1` (stereo partly drawn) [(2S)-2-(3-(3,5-dimethyl-1H-pyrazol-1-yl)propanamido)-N1-((4S,5S,7R)-5-hydroxy-8-(3-hydroxy-1-(isobutylamino)-1-oxopropan-2-ylamino)-2,7-dimethyl-8-oxooctan-4-yl)succinamide] was tested. Which Ki [1] did it give?
**A.** Its Ki is greater than 600 nM.

**Q.** `CC(=O)NC[C@H](NC(=O)OCc1nc(C)cs1)C(=O)N[C@@H](CC(C)C)[C@@H](O)C[C@@H](C)C(=O)N[C@H](C(=O)NCC(C)C)C(C)C` [(4-methylthiazol-2-yl)methyl (5S,8S,9S,11R,14S)-9-hydroxy-8-isobutyl-14-isopropyl-11,18-dimethyl-2,6,12,15-tetraoxo-3,7,13,16-tetraazanonadecan-5-yicarbamate] was tested. Which Ki [1] did it give?
**A.** Its Ki is 100 to 600 nM.

**Q.** What about the Ki [2] of the same compound?
**A.** Its Ki is 100 to 600 nM.

**Q.** What does the source list for `Cc1csc(COC(=O)N[C@@H](CC(N)=O)C(=O)N[C@@H](CC(C)C)[C@@H](O)C[C@@H](C)C(=O)N[C@H](C(=O)NCC(C)C)C(C)C)n1` [(4-methylthiazol-2-yl)methyl (S)-4-amino-1-((4S,5S,7R)-5-hydroxy-8-((S)-1-(isobutylamino)-3-methyl-1-oxobutan2-ylamino)-2,7-dimethyl-8-oxooctan-4-ylamino)-1,4-dioxobutan-2-ylcarbamate]?
**A.** Ki [1]: 100 to 600 nM; Ki [2]: > 600 nM

**Q.** For `COCCOCCOC(=O)C[C@H](NC(=O)OCc1nc(C)oc1C)C(=O)N[C@@H](CC(C)C)[C@@H](O)C[C@@H](C)C(=O)N[C@H](C(=O)NCC(C)C)C(C)C` [(S)-2-(2-methoxyethoxy)ethyl 3-(((2,5-dimethyloxazol-4-yl)methoxy)carbonylamino)-4-((4S,5S,7R)-5-hydroxy-8-((S)-1-(isobutylamino)-3-methyl-1-oxobutan-2-ylamino)2,7-dimethyl-8-oxooctan-4-ylamino)-4-oxobutanoate], which Ki [1] is on record?
**A.** Its Ki is less than 100 nM.

**Q.** What about the Ki [2] of the same compound?
**A.** The Ki was less than 100 nM.

**Q.** Which Ki [1] does the source give for `Cc1cc(C)n(CCC(=O)N[C@@H](CC(N)=O)C(=O)N[C@@H](CC(C)C)[C@@H](O)C[C@@H](C)C(=O)NC(C)(C)C(=O)NCC(C)C)n1` [(S)-2-(3-(3,5-dimethyl-1H-pyrazol-1-yl)propanamido)-N1-((4S,5S,7R)-5-hydroxy-8-(1-(isobutylamino)-2-methyl-1-oxopropan-2-ylamino)-2,7-dimethyl-8-oxooctan-4-yl)succinamide] here?
**A.** The Ki was greater than 600 nM.

**Q.** For `Cc1cc(C)n(CCC(=O)N[C@@H](CC(N)=O)C(=O)N[C@@H](CC(C)C)[C@@H](O)C[C@@H](C)C(=O)NC2(C(=O)NCC(C)C)CCCC2)n1` [(S)-2-(3-(3,5-dimethyl-1H-pyrazol-1-yl)propanamido)-N1-((4S,5S,7R)-5-hydroxy-8-(1-(isobutylcarbamoyl)cyclopentylamino)-2,7-dimethyl-8-oxooctan-4-yl)succinamide], which Ki [1] is on record?
**A.** The Ki was greater than 600 nM.

**Q.** How did the Ki [1] turn out when `Cc1cc(C)n(CCC(=O)N[C@@H](CC(N)=O)C(=O)N[C@@H](CC(C)C)[C@@H](O)C[C@@H](C)C(=O)N[C@H](C(=O)NCC(C)C)C(C)C)n1` [(S)-2-(3-(3,5-dimethyl-1H-pyrazol-1-yl)propanamido)-N1-((4S,5S,7R)-5-hydroxy-8-((S)-1-(isobutylamino)-3-methyl-1-oxobutan-2-ylamino)-2,7-dimethyl-8-oxooctan-4-yl)succinamide] was run?
**A.** Its Ki is 100 to 600 nM.

**Q.** What about the Ki [2] of the same compound?
**A.** Its Ki is less than 100 nM.

**Q.** With `COCC[C@H](NC(=O)[C@H](C)C[C@H](O)[C@H](CC(C)C)NC(=O)[C@H](CC(N)=O)NC(=O)CCn1nc(C)cc1C)C(=O)NCC(C)C` [(S)-2-(3-(3,5-dimethyl-1H-pyrazol-1-yl)propanamido)-N1-((4S,5S,7R)-5-hydroxy-8-((S)-1-(isobutylamino)-4-methoxy-1-oxobutan-2-ylamino)-2,7-dimethyl-8-oxooctan-4-yl)succinamide] as the compound, how does the Ki [1] read?
**A.** The Ki was greater than 600 nM.

**Q.** For `CC[C@@H](Cn1nc(C)cc1C)C(=O)N[C@@H](CC(N)=O)C(=O)N[C@@H](CC(C)C)[C@@H](O)C[C@@H](C)C(=O)N[C@H](C(=O)NCC(C)C)C(C)C` [(S)-2-((S)-2-((3,5-dimethyl-1H-pyrazol-1-yl)methyl)butanamido)-N1-((4S,5S,7R)-5-hydroxy-8-((S)-1-(isobutylamino)-3-methyl-1-oxobutan-2-ylamino)-2,7-dimethyl-8-oxooctan-4-yl)succinamide], which Ki [1] is on record?
**A.** Its Ki is 100 to 600 nM.

**Q.** What about the Ki [2] of the same compound?
**A.** Its Ki is less than 100 nM.

**Q.** For `Cc1cc(C)n(CCC(=O)N[C@@H](CC(=O)O)C(=O)N[C@@H](CC(C)C)[C@@H](O)C[C@@H](C)C(=O)N[C@H](C(=O)NCC(C)C)C(C)C)n1` [(S)-3-(3-(3,5-dimethyl-1H-pyrazol-1-yl)propanamido)-4-((4S,5S,7R)-5-hydroxy-8-((S)-1-(isobutylamino)-3-methyl-1-oxobutan-2-ylamino)-2,7-dimethyl-8-oxooctan-4-ylamino)-4-oxobutanoic acid], which Ki [1] is on record?
**A.** The Ki was 100 to 600 nM.

**Q.** `Cc1nc(COC(=O)N[C@@H](CC(=O)O)C(=O)N[C@@H](CC(C)C)[C@@H](O)C[C@@H](C)C(=O)N[C@H](C(=O)NCC(C)C)C(C)C)c(C)o1` [(S)-3-(((2,5-dimethyloxazol-4-yl)methoxy)carbonylamino)-4-((4S,5S,7R)-5-hydroxy-8-((S)-1-(isobutylamino)-3-methyl-1-oxobutan-2-ylamino)2,7-dimethyl-8-oxooctan-4-ylamino)-4-oxobutanoic acid] was tested. Which Ki [1] did it give?
**A.** The Ki was 100 to 600 nM.

**Q.** And the Ki [2]?
**A.** Its Ki is less than 100 nM.

**Q.** What does the source list for `Cc1csc(C[C@H](C)C(=O)N[C@@H](CC(=O)O)C(=O)N[C@@H](CC(C)C)[C@@H](O)C[C@@H](C)C(=O)N[C@H](C(=O)NCC(C)C)C(C)C)n1` [(S)-4-((4S,5S,7R)-5-hydroxy-8-((S)-1-(isobutylamino)-3-methyl-1-oxobutan-2-ylamino)-2,7-dimethyl-8-oxooctan-4-ylamino)-3-((S)-2-methyl-3-(4-methylthiazol-2-yl)propanamido)-4-oxobutanoic acid]?
**A.** Ki [1]: 100 to 600 nM; Ki [2]: 100 to 600 nM

**Q.** Which Ki [1] does the source give for `Cc1csc(C[C@H](C)C(=O)N[C@@H](CC(N)=O)C(=O)N[C@@H](CC(C)C)[C@@H](O)C[C@@H](C)C(=O)N[C@H](C(=O)NCC(C)C)C(C)C)n1` [(S)-N1-((4S,5S,7R)-5-hydroxy-8-((S)-1-(isobutylamino)-3-methyl-1-oxobutan-2-ylamino)-2,7-dimethyl-8-oxooctan-4-yl)-2-((S)-2-methyl-3-(4-methylthiazol-2-yl)propanamido)succinamide] here?
**A.** Its Ki is 100 to 600 nM.

**Q.** What about the Ki [2] of the same compound?
**A.** The Ki was less than 100 nM.

**Q.** `Cc1csc(C[C@H](C)C(=O)N[C@@H](CC(=O)N(C)C)C(=O)N[C@@H](CC(C)C)[C@@H](O)C[C@@H](C)C(=O)N[C@H](C(=O)NCC(C)C)C(C)C)n1` [(S)-N1-((4S,5S,7R)-5-hydroxy-8-((S)-1-(isobutylamino)-3-methyl-1-oxobutan-2-ylamino)-2,7-dimethyl-8-oxooctan-4-yl)-N4,N4-dimethyl-2-((S)-2-methyl-3-(4-methylthiazol-2-yl)propanamido)succinamide] was tested. Which Ki [1] did it give?
**A.** The Ki was 100 to 600 nM.

**Q.** And the Ki [2]?
**A.** The Ki was less than 100 nM.

**Q.** Which Ki [1] does the source give for `CCNC(=O)C[C@H](NC(=O)[C@@H](C)Cc1nc(C)cs1)C(=O)N[C@@H](CC(C)C)[C@@H](O)C[C@@H](C)C(=O)N[C@H](C(=O)NCC(C)C)C(C)C` [(S)-N4-ethyl-N1-((4S,5S,7R)-5-hydroxy-8-((S)-1-(isobutylamino)-3-methyl-1-oxobutan-2-ylamino)-2,7-dimethyl-8-oxooctan-4-yl)-2-((S)-2-methyl-3-(4-methylthiazol-2-yl)propanamido)succinamide] here?
**A.** Its Ki is less than 100 nM.

**Q.** `Cc1cc(C)n(CCC(=O)N[C@@H](CC(=O)OCc2ccccc2)C(=O)N[C@@H](CC(C)C)[C@@H](O)C[C@@H](C)C(=O)N[C@H](C(=O)NCC(C)C)C(C)C)n1` [(S)-benzyl 3-(3-(3,5-dimethyl-1H-pyrazol-1-yl)propanamido)-4-((4S,5S,7R)-5-hydroxy-8-((S)-1-(isobutylamino)-3-methyl-1-oxobutan-2-ylamino)-2,7-dimethyl-8-oxooctan-4-ylamino)-4-oxobutanoate] was tested. Which Ki [1] did it give?
**A.** Its Ki is less than 100 nM.

**Q.** How did the Ki [1] turn out when `CC[C@H](Cc1nc(C)cs1)C(=O)N[C@@H](CNC(=O)OC(C)(C)C)C(=O)N[C@@H](CC(C)C)[C@@H](O)C[C@@H](C)C(=O)N[C@H](C(=O)NCC(C)C)C(C)C` [tert-butyl (S)-3-((4S,5S,7R)-5-hydroxy-8-((S)-1-(isobutylamino)-3-methyl-1-oxobutan-2-ylamino)-2,7-dimethyl-8-oxooctan-4-ylamino)-2-((R)-2-((4-methylthiazol-2-yl)methyl)butanamido)-3-oxopropylcarbamate] was run?
**A.** The Ki was greater than 600 nM.
